Measurements reported in patent US7572890B2, “Recombinant human mannan-building proteins” (Fuso Pharmaceutical Industries, Ltd., priority 1998, dated 2009).
Where two headings read alike, the source gives them in different places.

How the values were obtained:
[1] = test system: Influenza A virus A/Ibaraki/l/90 (H3N2); assay: Hemagglutination Inhibition (HI) activities; format: cell-based; conditions: for Minimum Protein Concentration for HI Activities: 16HAU virus, chicken erythrocytes
[2] = biological target: T1, rhMBP (without Vitamin C) (Homo sapiens, UniProt P11226); assay: Sugar inhibition of rhMBP (cultured without vitamin C) binding to mannan (ELISA)
T1 construct: made in house; host or cells: CHO DG44 (dhfr-), neomycin/MTX-resistant clones; purified from culture supernatant on mannan-agarose

rhMBP (with Vitamin C) = biological target: T2, rhMBP (with Vitamin C) (Homo sapiens, UniProt P11226); assay: Sugar inhibition of rhMBP (cultured with vitamin C) binding to mannan (ELISA)
T2 construct: made in house; host or cells: CHO DG44 (dhfr-), neomycin/MTX-resistant clones; purified from culture supernatant on mannan-agarose

native hMBP = biological target: T3, native hMBP (Homo sapiens, UniProt P11226); assay: Sugar inhibition of native hMBP binding to mannan (ELISA)
T3 construct: samples of stepwise dilution of the native hMBP, rhMBP (cultured with vitamin C), rhMBP (cultured without vitamin C)

[3] = test system: Influenza A virus A/Ibaraki/l/90; assay: Neutralization activities (focus reduction on MDCK cells); format: cell-based
[4] = test system: Influenza A virus (H1N1 Yamagata virion, H3N2 Beijin virion); assay: Binding of rhMBP to blotted viral structural proteins: Influenza A virus; conditions: rhMBP 1.0 μg/ml; FIG. 20
Procedure: (§1) Binding activities on rhMBP to HIV-1, HBV and Influenza A virus were determined by electrophoresing the following viral structural proteins, transferring them to membranes, binding thereto rhMBP and detecting them with labeled antibody.
(§2) Necessary amounts of viral structural proteins for the electrophoresis were 0.25 μg of HIV-gp120 (HIVIIIB-gp120) (ADVANCED BIOTECHNOLOGIES INCORPORATED (ABI)), 0.25 μg of HIV-gp160 (HIVIIIB-gp160) (ABI), 10 μg of HBS (Hepatitis B Surface Antigen (HBsAg) (ABI), Subtype ad), Influenza A virus (IAV; presented by The Research Foundation For Osaka University Research Institute for Microbial Diseases), 5 μg of H1N1 Yamagata virion and 5 μg of H3N2 Beijin virion.
(§3) SDS-PAGE employed polyacrylamide gel having the concentration gradient of 4˜20%, and HIV-1 and HBS were electrophoresed under reducing condition. After the electrophoresis, they were transferred to Immobilon-P^SQ transfer membrane (Millipore) with NOVA BLOT™ electrophoretic transfer unit (Pharmacia) by using semi-dry electroblot buffer kit (Owl Scientific). After such transfer, they were blocked with BLOCKACE™ blocking solution (Dainippon Pharmaceutical) at room temperature for one hour. […]

[5] = test system: HBV (Hepatitis B Surface Antigen); assay: Binding of rhMBP to blotted viral structural proteins: HBV; conditions: rhMBP 1.0 μg/ml; FIG. 20
Procedure: as §1, §2, §3

[6] = Sugar binding activity of MBP on mannan-coated plates (ELISA); conditions: Table 1
Procedure: Microtiter Plates were treated with 100 μl of coating buffer (15 mM sodium carbonate, 35 mM sodium hydrogen carbonate, 0.05% sodium azide, pH 9.6) containing mannan (10 μg/ml:SIGMA) at 4° C. overnight. After each treatment step, the plates were washed three times with TBSNTC solution (TBS, 0.05% sodium azide, 0.05% TWEEN 20 (Registered Trade Mark), 5 mM calcium chloride). After completing the coating of the plates, the plates were treated and blocked with BLOCKACE™ blocking solution (Dainippon Pharmaceutical) at room temperature for one hour.
After washing them, samples of stepwise dilution of the native hMBP, rhMBP (cultured with vitamin C), rhMBP (cultured without vitamin C) having the concentration of 200, 100, 50, 25, 12.5, 6.25 ng/ml, combination samples of 200 ng/ml of each hMBP with EDTA added to be its concentration of 10 mM, and combination samples of 50 ng/ml of each hMBP with mannose added to be its concentration of 100 mM were prepared, thereafter, 100 μl of each of them were poured into each well and were incubated at 37° C. for one hour. […] After incubating them at room temperature for 30 minutes, 100 μl of 1M phosphoric acid were added thereto, and their absorbance were measured at 450 nm (Model 450 Microplate Reader; Bio-Rad). […]

[7] = test system: HIV-1 (HIV-gp120, HIV-gp160); assay: Binding of rhMBP to blotted viral structural proteins: HIV-1; conditions: rhMBP 1.0 μg/ml; FIG. 20
Procedure: as §1, §2, §3

[8] = test system: Influenza A virus A/Ibaraki/1/90; format: cell-based; conditions: 0.5 and 1 μg/ml, three days; FIG. 21
guinea pig complement = assay: Complement activation: hemolysis of mannan-sensitized sheep erythrocyte
[9] = rhMBP (without Vitamin C), mannan-coated microtiter plates, read-out: I 50: Sugar concentration to halve binding activities with mannan
[10] = rhMBP (with Vitamin C), mannan-coated microtiter plates, read-out: I 50: Sugar concentration to halve binding activities with mannan
[11] = native hMBP, mannan-coated microtiter plates, read-out: I 50: Sugar concentration to halve binding activities with mannan

T1 sequence (P11226 21-248): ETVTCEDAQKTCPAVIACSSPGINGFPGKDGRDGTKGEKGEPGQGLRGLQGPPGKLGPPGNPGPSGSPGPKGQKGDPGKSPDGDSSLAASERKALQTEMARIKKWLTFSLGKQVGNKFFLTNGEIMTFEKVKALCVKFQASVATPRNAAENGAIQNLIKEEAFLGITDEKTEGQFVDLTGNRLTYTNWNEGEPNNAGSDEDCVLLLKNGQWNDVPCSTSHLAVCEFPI
T3 sequence (P11226 21-248): as above
T2 sequence (P11226 21-248): as above

Compound | IC50 [2, 9] [mM] | IC50 (rhMBP (with Vitamin C); [10]) [mM] | IC50 (native hMBP; [11]) [mM] | further results
rhMBP (without Vitamin C): rhMBP from CHO clone cultured in medium without vitamin C | – | – | – | Minimum Protein Concentration for HI Activities [1]: 80 ng/mL
O=C[C@@H](O)[C@@H](O)[C@H](O)[C@H](O)CO [D-Mannose] | – | – | – | IC50 [2]: 6.8 mM; IC50 (rhMBP (with Vitamin C)): 6.7 mM; IC50 (native hMBP): 3.7 mM
CC(=O)N[C@@H]1C(O)O[C@H](CO)[C@@H](O)[C@@H]1O (stereo partly drawn) [N-Acetyl-D-Mannosamine] | 6.9 | 6.9 | 4.4 | –
rhMBP (with Vitamin C): rhMBP from CHO clone cultured in medium with vitamin C added | – | – | – | Minimum Protein Concentration for HI Activities [1]: 80 ng/mL
CC(=O)N[C@H]1C(O)O[C@H](CO)[C@H](O)[C@@H]1O (stereo partly drawn) [N-Acetyl-D-Galactosamine] | > 100 | > 100 | > 100 | –
C[C@@H](O)[C@H](O)[C@H](O)[C@@H](O)C=O [D-Fucose] | 86.7 | 39.1 | 33.5 | –
C[C@H](O)[C@@H](O)[C@@H](O)[C@H](O)C=O [L-Fucose] | 8.7 | 4.4 | 4.2 | –
rhMBP: recombinant human Mannan-Binding Protein expressed from pNOW1-hMBP in dhfr- CHO cells, purified on mannan-agarose | – | – | – | Neutralization activities on addition of mannose ([3]; 100 mM mannose): inhibited by addition of mannose; Neutralization activities for influenza virus (reduction rate of FFU) ([3]; FIG. 19, MDCK cells): had neutralization activities for influenza virus; Binding activities to Influenza A virus [4]: have binding activities; Binding activities to HBV [5]: have binding activities; Sugar binding specificities compared with native hMBP [6]: substantially identical to those by the native hMBP; Binding activities to HIV-1 [7]: have binding activities; Hemagglutination Inhibition (HI) activities compared with native hMBP ([1]; Table 2 and FIG. 18): not inferior to that by native hMBP; Viral growth inhibition (gross area of virus-infected focus) [8]: reduced focus area infected by influenza viruses concentration-dependently; Hemolysis of sensitized sheep erythrocyte (complement activation) (guinea pig complement; 1, 10, 100 and 1000 ng/tube, FIG. 22): hemolyzed concentration-dependently sensitized sheep erythrocyte substantially like the native hMBP; Complement activation on addition of mannose (guinea pig complement; mannose added): suppressed by an addition of mannose
CC(=O)N[C@H]1C(O)O[C@H](CO)[C@@H](O)[C@@H]1O (stereo partly drawn) [N-Acetyl-D-Glucosamine] | 3.8 | 3.6 | 2.7 | –
O=C[C@H](O)[C@@H](O)[C@@H](O)[C@H](O)CO [Galactose] | – | – | – | IC50 [2]: 36.7 mM; IC50 (rhMBP (with Vitamin C)): 29.8 mM; IC50 (native hMBP): 24.2 mM
OC[C@H]1O[C@@H](O[C@H]2[C@H](O)[C@@H](O)C(O)O[C@@H]2CO)[C@H](O)[C@@H](O)[C@H]1O (stereo partly shown) [Lactose] | 59.4 | 46.6 | 36 | –
OC[C@H]1O[C@H](O[C@H]2[C@H](O)[C@@H](O)[C@H](O)O[C@@H]2CO)[C@H](O)[C@@H](O)[C@@H]1O [Maltose] | 7.4 | 6.4 | 7.4 | –
native hMBP: natural Human Mannan-Binding Protein, used as comparator | – | – | – | Minimum Protein Concentration for HI Activities [1]: 40 ng/mL
